Consider two compounds from patent US9683019B2, “Cyclic polypeptides for the treatment of heart failure” (priority 2013, dated 2017).

Data set [1] can be described thus: Plasma Stability Assay (LC-MS). It is filed as in vitro ADME. The following applies: male, Sprague-Dawley, heparinized rat plasma, 37° C., read-out: Plasma stability t½. How it is done:
Plasma Stability Assay: Materials: Working solution: 1 mg/mL test article is prepared in Milli-Q water Extraction solution: Methanol:Acetonitrile:Water (1:1:1) with 0.1% Formic Acid and 400 ng/mL Glyburide. Plasma: Male Sprague-Dawley rat plasma (with sodium heparin), purchased from Bioreclamation LLC (Liverpool, N.Y.). Test article was prepared in one of the following biological matrices: heparinized rat plasma, heparinized rat whole blood or lung homogenate. […] Lung homogenate samples were prepared by diluting lung homogenate to 1 mg/ml protein concentration with phosphate buffered saline (PBS), followed by addition of 5 uL Working solution to 995 uL diluted lung homogenate. The samples were incubated at 37° C. with gentle shaking (65˜75 rpm) in a water bath incubator. […] Afterwards, a pipetting device (Tecan Temo) was used to transfer the supernatants to another plate and add 50 uL of water to all samples. The plate was vortexed prior to LC-MS analysis. […] The samples are incubated at 37° C. with gentle shaking (65˜75 rpm) in a water bath incubator. […] The reaction mixture is incubated at 37° C. for 1 hour. After completion of reaction, protein precipitation is performed using 300 uL of acetonitrile. […] Afterwards, a pipetting device (Tecan Temo) is used to transfer 125 uL supernatants to another plate and adds 50 uL of water to all samples. […]

The nature of data set [2]: Surrogate Activity-Based Plasma Stability Assay. The following applies: rat. The data set is classed as in vitro ADME. An excerpt:
Surrogate Activity-Based Plasma Stability Assay:
2) Calculate slope of value above and […]

A further data set addresses T1, hAPJ (Homo sapiens, UniProt P35414).
T1 sequence (P35414 1-380): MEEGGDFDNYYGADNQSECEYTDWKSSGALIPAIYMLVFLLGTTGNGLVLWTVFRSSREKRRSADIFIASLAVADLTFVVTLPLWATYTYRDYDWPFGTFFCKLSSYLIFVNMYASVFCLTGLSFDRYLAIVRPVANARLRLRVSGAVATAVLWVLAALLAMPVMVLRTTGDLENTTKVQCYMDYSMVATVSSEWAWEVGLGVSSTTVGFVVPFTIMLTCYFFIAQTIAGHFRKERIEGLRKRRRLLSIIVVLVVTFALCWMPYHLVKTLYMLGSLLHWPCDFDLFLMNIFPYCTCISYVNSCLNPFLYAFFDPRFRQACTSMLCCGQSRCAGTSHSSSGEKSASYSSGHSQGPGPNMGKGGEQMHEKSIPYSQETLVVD
Briefly: hAPJ Calcium Flux Assay. The data set is classed as cell-based. The following applies: Chem-5 APJ stable cells, calcium flux stimulation; read-out: hAPJ Ca2+ Flux EC50. On the procedure:
Chem-5 APJ stable cells (Millipore # HTS068C) were plated in 384-well format with 10,000 cells/well in 25 ul growth media, then grown 24 hours in a 37° C. tissue culture incubator. One hour before the assay, 25 ul/well FLIPR Calcium 4 dye (Molecular Devices R8142) with 2.5 mM probenecid was added, and cells were incubated one hour in a 37° C. tissue culture incubator. Peptides were solubilized in HBSS, HEPES & 0.1% BSA buffer, and serially-diluted 10-fold, from 50 uM to 5 pM, in triplicate. FLIPR Tetra was used to add peptide to the cells with dye (1:5, for final peptide concentrations ranging from 10 uM to 1 pM). FLIPR dye inside the cells emitted fluorescence after binding to calcium, while fluorescence from outside the cells was masked. […] Readings were done for 3 minutes total, beginning 10 seconds before the peptide addition. Maximum-minimum values were calculated and plotted for each peptide concentration, and GraphPad prism software was used to calculate EC50 values at the curve inflection points, for calcium flux stimulation by peptides.
(Calcium flux is commonly read through the fluorescence of an indicator in the cells.)

Where a SMILES comes first, the peptide text is derived from it. Bridges are numbered along the chain shown (N, C = ends). [ ]: non-standard residue; d: D form. Nle = CCCC[C@H](N)C(=O)O Bounds are passed on as bounds.

With `CCCC[C@@H](NC(=O)[C@@H]1CCCN1C(=O)CNC(=O)[C@H](CCCCN)NC(=O)[C@@H]1CSSC[C@H](NC(=O)[C@@H]2CCCN2C(=O)[C@H](CCCNC(=N)N)NC(=O)[C@@H]2CCC(=O)N2)C(=O)N[C@@H](CC(C)C)C(=O)N[C@@H](CO)C(=O)N1)C(=O)NCCc1ccccc1` [Example 32, pE-R-P-C*-L-S-C*-K-G-P-(D-Nle)-NH(Phenethyl)], the half-life in data set [1] came to 6.28 h. Besides, in data set [2], the “Surrogate Activity based Plasma stability t½” value is more than 16.67 h and the half-life is more than 16.7 h.
Consider `CCCC[C@H](NC(=O)[C@@H]1CCCN1C(=O)CNC(=O)[C@H](CCCCN)NC(=O)[C@@H]1CSSC[C@@H](NC(C)=O)C(=O)N[C@@H](CCCNC(=N)N)C(=O)N2CCC[C@H]2C(=O)N[C@@H](CCCNC(=N)N)C(=O)N[C@@H](CC(C)C)C(=O)N[C@@H](CO)C(=O)N1)C(=O)N1CCC[C@H]1C(=O)N[C@@H](Cc1ccccc1)C(=O)O` [Example 12, Ac-c*-R-P-R-L-S-C*-K-G-P-Nle-P-F-OH] (Ac-[dC]RPRLSCKGP[Nle]PF-OH; disulfide 1-7), for which the 50% effective concentration (EC50) (as a rule, the midpoint of the concentration-response curve) on hAPJ was found to be 21.4 nM. Moreover, the half-life in data set [2] was 0.167 h.
